Test results taken from ChEMBL document CHEMBL5723583, “Data for DCP probe BAY-9835” (2024).

Experiments:
[1] = biological target: 5-hydroxytryptamine receptor 2C (Homo sapiens) (UniProt P28335); experiment: Inhibition of Serotonin (5-Hydroxytryptamine) 5-HT2C at 10.0 µM in the Eurofins-Panlabs selectivity screen; settings: Compound concentration 10.0 uM
[2] = biological target: Angiotensin-converting enzyme (Homo sapiens) (UniProt P12821); experiment: Inhibition of Peptidase, Angiotensin Converting Enzyme at 10.0 µM in the Eurofins-Panlabs selectivity screen; settings: Oryctolagus cuniculus; Compound concentration 10.0 uM
Chain of Angiotensin-converting enzyme (Homo sapiens) (P12821 whole entry): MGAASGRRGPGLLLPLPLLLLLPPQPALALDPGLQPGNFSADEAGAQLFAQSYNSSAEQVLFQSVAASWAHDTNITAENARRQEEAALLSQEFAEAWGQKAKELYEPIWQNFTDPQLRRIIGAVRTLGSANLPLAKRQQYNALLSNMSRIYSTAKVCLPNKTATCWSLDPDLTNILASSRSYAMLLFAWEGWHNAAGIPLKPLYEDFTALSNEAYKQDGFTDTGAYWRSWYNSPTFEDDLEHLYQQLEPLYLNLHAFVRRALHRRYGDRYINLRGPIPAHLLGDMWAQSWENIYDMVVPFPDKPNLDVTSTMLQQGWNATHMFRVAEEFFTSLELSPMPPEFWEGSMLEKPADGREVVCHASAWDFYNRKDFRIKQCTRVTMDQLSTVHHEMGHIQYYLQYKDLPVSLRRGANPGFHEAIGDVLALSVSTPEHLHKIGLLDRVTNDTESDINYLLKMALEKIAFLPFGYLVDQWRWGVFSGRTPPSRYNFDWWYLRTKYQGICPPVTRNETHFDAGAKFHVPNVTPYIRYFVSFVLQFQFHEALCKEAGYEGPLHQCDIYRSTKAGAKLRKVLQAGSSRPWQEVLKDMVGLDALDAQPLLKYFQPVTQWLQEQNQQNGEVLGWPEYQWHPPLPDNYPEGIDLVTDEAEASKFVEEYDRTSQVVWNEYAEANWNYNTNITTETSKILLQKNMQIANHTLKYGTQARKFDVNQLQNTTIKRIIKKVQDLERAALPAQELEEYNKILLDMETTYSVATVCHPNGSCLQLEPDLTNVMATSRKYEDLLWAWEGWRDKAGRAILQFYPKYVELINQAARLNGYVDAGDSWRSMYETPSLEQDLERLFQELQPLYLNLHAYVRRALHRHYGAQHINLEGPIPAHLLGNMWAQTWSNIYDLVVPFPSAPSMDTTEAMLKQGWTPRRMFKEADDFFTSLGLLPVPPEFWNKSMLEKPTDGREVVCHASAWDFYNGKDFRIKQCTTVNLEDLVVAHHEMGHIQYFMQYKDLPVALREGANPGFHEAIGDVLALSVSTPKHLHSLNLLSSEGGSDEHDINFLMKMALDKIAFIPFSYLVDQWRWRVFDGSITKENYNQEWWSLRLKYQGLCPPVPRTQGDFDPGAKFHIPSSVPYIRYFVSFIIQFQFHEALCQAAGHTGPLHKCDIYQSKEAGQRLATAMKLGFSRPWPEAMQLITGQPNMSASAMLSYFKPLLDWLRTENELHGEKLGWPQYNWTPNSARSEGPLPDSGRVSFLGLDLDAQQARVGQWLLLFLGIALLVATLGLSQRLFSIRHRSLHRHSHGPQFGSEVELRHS

[3] = biological target: Histamine H2 receptor (Homo sapiens) (UniProt P25021); experiment: Inhibition of Histamine H2 at 10.0 µM in the Eurofins-Panlabs selectivity screen; settings: Compound concentration 10.0 uM
Chain of Histamine H2 receptor (Homo sapiens) (P25021 whole entry): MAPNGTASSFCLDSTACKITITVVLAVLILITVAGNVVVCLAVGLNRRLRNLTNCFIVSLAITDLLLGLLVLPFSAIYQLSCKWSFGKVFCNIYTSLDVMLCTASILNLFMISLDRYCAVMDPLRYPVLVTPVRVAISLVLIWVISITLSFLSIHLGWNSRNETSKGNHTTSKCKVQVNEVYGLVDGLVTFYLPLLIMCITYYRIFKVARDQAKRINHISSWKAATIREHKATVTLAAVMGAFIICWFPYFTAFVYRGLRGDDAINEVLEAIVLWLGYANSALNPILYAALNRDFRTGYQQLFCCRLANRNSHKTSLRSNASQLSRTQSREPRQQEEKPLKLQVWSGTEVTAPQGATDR

[4] = biological target: Glutamate NMDA receptor (Rattus norvegicus) (UniProt P35439+Q00959+Q00960+Q00961+Q62645+Q8VHN2+Q9R1M7); experiment: Inhibition of Glutamate, NMDA, Glycine at 10.0 µM in the Eurofins-Panlabs selectivity screen; type: protein-complex assay; settings: Compound concentration 10.0 uM
[5] = biological target: Androgen receptor (Homo sapiens) (UniProt P10275); experiment: Inhibition of Androgen (Testosterone) at 10.0 µM in the Eurofins-Panlabs selectivity screen; settings: Compound concentration 10.0 uM
Chain of Androgen receptor (Homo sapiens) (P10275 whole entry): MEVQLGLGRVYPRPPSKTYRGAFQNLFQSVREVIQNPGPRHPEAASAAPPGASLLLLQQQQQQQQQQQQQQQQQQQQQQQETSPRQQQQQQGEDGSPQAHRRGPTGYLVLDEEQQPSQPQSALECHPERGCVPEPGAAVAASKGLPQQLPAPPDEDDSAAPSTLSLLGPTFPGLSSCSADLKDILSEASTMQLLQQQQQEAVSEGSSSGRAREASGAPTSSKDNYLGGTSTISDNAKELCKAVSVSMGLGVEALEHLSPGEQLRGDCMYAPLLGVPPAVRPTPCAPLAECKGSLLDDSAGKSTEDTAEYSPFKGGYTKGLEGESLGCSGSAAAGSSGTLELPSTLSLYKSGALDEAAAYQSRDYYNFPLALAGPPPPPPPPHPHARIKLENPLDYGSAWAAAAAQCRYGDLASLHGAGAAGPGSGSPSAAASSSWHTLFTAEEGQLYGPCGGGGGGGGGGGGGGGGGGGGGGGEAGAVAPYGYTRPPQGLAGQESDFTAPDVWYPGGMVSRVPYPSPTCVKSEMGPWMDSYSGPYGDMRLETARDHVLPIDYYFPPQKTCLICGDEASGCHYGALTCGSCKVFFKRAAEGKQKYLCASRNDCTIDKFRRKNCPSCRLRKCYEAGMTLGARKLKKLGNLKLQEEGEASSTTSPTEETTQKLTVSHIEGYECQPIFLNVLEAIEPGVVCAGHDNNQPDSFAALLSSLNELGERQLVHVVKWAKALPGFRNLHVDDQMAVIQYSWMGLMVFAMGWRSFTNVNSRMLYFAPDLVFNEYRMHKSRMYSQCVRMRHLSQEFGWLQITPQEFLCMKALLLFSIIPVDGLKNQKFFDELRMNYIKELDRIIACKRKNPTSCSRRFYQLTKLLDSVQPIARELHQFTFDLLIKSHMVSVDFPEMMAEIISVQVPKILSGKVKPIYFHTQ

[6] = biological target: Matrix metalloproteinase-14 (Homo sapiens, UniProt P50281); experiment: IC50 of hMMP14 at 1.0 µM in the Bayer in-house protease panel
[7] = biological target: Estrogen receptor (Homo sapiens) (UniProt P03372); experiment: Inhibition of Estrogen ERalpha at 10.0 µM in the Eurofins-Panlabs selectivity screen; settings: Compound concentration 10.0 uM
[8] = biological target: Purinergic P2Y (Rattus norvegicus) (UniProt O35811+Q9EPX4+P49651+Q63371+P41232+O35881+Q6GUG4); experiment: Inhibition of Purinergic P2Y at 10.0 µM in the Eurofins-Panlabs selectivity screen; type: protein assay; settings: Compound concentration 10.0 uM
[9] = biological target: T1, GABA-A receptor; anion channel (Rattus norvegicus) (UniProt O09028+P15431+P18506+P18508+P19969+P20236+P23574+P23576+P28471+P28473+P30191+P62813+P63079+P63138+Q91ZM7+Q9ES14); experiment: Inhibition of GABAA, Chloride Channel, TBOB at 10.0 µM in the Eurofins-Panlabs selectivity screen; type: protein-complex assay; settings: Compound concentration 10.0 uM
[10] = biological target: 5-hydroxytryptamine receptor 1A (Homo sapiens) (UniProt P08908); experiment: Inhibition of Serotonin (5-Hydroxytryptamine) 5-HT1A at 10.0 µM in the Eurofins-Panlabs selectivity screen; settings: Compound concentration 10.0 uM
[11] = biological target: Prostaglandin G/H synthase 1 (Homo sapiens) (UniProt P23219); experiment: Inhibition of Cyclooxygenase COX-1 at 10.0 µM in the Eurofins-Panlabs selectivity screen; settings: Compound concentration 10.0 uM
[12] = biological target: Macrophage metalloelastase (Homo sapiens, UniProt P39900); experiment: IC50 of hMMP12 at 1.0 µM in the Bayer in-house protease panel
Chain of Macrophage metalloelastase (P39900 whole entry): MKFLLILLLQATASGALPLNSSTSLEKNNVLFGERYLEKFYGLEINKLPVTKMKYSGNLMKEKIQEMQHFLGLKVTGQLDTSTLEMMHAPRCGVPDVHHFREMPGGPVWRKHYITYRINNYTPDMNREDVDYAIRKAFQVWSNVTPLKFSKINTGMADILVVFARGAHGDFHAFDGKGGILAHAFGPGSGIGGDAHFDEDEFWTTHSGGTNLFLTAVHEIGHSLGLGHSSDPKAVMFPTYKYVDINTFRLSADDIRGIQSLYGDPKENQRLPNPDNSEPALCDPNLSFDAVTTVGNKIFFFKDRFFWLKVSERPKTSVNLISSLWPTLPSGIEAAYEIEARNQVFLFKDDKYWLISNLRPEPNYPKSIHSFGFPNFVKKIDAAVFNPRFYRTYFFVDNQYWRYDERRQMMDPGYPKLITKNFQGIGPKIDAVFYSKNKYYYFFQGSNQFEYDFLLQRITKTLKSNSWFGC

[13] = biological target: Calpain-1 catalytic subunit (Homo sapiens, UniProt P07384); experiment: IC50 of Calpain 1 at 1.0 µM in the Bayer in-house protease panel
[14] = biological target: 3-hydroxy-3-methylglutaryl-coenzyme A reductase (Homo sapiens) (UniProt P04035); experiment: Inhibition of HMG-CoA Reductase at 10.0 µM in the Eurofins-Panlabs selectivity screen; settings: Compound concentration 10.0 uM
Chain of 3-hydroxy-3-methylglutaryl-coenzyme A reductase (Homo sapiens) (P04035 whole entry): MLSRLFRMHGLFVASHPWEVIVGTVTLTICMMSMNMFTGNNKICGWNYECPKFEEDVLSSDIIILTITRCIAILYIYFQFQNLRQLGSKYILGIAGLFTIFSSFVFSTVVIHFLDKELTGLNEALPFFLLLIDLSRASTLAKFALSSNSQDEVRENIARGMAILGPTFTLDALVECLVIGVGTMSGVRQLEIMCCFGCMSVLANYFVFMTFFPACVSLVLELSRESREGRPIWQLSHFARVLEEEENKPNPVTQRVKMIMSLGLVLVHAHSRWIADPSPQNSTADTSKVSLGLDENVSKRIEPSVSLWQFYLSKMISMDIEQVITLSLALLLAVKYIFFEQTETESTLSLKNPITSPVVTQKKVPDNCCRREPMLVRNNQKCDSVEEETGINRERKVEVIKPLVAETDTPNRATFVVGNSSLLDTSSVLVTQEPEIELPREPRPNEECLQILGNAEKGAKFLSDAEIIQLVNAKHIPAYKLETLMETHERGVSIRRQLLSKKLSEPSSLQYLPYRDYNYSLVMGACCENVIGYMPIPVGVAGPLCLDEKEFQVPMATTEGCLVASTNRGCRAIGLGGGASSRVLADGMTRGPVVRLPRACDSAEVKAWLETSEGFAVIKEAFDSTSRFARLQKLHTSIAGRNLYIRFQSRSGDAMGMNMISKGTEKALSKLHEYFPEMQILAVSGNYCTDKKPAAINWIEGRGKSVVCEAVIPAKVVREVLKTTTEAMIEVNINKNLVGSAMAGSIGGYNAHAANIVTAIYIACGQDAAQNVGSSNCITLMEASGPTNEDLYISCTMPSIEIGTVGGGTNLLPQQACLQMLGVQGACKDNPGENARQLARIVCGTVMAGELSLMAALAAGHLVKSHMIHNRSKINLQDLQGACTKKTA

[15] = biological target: Vasopressin V1a receptor (Homo sapiens) (UniProt P37288); experiment: Inhibition of Vasopressin V1A at 10.0 µM in the Eurofins-Panlabs selectivity screen; settings: Compound concentration 10.0 uM
[16] = biological target: Kappa-type opioid receptor (Homo sapiens) (UniProt P41145); experiment: Inhibition of Opiate kappa (OP2, KOP) at 10.0 µM in the Eurofins-Panlabs selectivity screen; settings: Compound concentration 10.0 uM
[17] = biological target: Sodium-dependent dopamine transporter (Homo sapiens) (UniProt Q01959); experiment: Inhibition of Transporter, Dopamine (DAT) at 10.0 µM in the Eurofins-Panlabs selectivity screen; settings: Compound concentration 10.0 uM
Chain of Sodium-dependent dopamine transporter (Homo sapiens) (Q01959 whole entry): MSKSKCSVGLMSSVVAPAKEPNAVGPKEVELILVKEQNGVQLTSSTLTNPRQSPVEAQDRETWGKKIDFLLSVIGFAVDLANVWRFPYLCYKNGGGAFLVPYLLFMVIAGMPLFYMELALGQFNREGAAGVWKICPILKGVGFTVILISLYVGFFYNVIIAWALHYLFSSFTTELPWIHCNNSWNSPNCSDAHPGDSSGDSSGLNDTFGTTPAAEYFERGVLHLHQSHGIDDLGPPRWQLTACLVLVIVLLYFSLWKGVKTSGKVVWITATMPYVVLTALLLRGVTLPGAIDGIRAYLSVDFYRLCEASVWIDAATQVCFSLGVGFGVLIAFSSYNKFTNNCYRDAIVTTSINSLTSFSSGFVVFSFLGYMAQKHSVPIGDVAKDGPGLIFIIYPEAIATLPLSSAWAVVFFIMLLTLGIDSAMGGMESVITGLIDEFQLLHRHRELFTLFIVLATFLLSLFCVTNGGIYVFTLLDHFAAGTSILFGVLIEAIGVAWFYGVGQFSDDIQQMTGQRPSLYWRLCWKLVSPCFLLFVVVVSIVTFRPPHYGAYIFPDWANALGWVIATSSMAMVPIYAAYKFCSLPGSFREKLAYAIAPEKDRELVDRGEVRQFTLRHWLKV

[18] = biological target: T1, GABA-A receptor; anion channel (Rattus norvegicus); experiment: Inhibition of GABAA, Flunitrazepam, Central at 10.0 µM in the Eurofins-Panlabs selectivity screen; type: protein-complex assay; settings: Compound concentration 10.0 uM

Chain of 5-hydroxytryptamine receptor 2C (Homo sapiens) (P28335 whole entry): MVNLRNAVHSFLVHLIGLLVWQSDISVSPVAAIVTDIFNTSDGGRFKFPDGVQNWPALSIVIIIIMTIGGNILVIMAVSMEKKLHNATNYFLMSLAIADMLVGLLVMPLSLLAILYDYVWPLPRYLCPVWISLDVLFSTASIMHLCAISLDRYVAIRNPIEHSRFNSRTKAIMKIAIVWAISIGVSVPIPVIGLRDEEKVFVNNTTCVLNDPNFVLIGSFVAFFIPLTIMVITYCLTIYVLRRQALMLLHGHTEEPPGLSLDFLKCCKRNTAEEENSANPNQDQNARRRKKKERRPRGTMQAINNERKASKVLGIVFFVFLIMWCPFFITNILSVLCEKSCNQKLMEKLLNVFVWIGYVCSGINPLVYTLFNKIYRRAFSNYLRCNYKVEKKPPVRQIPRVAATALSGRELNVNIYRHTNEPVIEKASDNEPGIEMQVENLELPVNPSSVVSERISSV

SMILES: Cn1nccc1[C@]1(CNC(=O)c2ccc(F)c(F)c2-c2ccc(C(F)(F)F)cc2)NC(=O)NC1=O
- inhibition [1]: -1%
- inhibition [2]: 3%
- inhibition [3]: 16%
- inhibition [4]: -4%
- inhibition [5]: 3%
- IC50 [6]: > 100 µM
- inhibition [7]: 13%
- inhibition [8]: -4%
- inhibition [9]: 0%
- inhibition [10]: -3%
- inhibition [11]: -5%
- IC50 [12]: 5.38 µM
- IC50 [13]: > 100 µM
- inhibition [14]: -5%
- inhibition [15]: 7%
- inhibition [16]: -4%
- inhibition [17]: 7%
- inhibition [18]: -6%
